# Measurements as given in patent US20260103471A1, “CYCLIC UREA THIAZOLYL COMPOUNDS FOR TREATMENT OF HSV” (Assembly Biosciences, Inc., priority 2022, published 2026).
# Tested on: HSV-2 G strain
# Assay: HSV-2 Antiviral Assay (Vero cells, cell viability)
# Format: cell-based
# Conditions: Human alphaherpesvirus 2, Vero, 120 h, Vero cells, 160 TCID50 HSV-2 G strain, 5 days, cell viability
# Description: Vero cells were cultured in Dulbecco's Modified Eagle Medium (DMVEM) supplemented with […] and 100 units/mL penicillin and streptomycin. The cells were passaged 2-3 times per week to maintain sub-confluent densities.
# Vero cells were seeded into 96-well plates at a density of 1.0×10^4 cells per well and allowed to attach overnight. Following attachment, the media was replaced with 50 μL of infection medium (DMEM supplemented with 2% fetal bovine serum and 100 units/mL penicillin and streptomycin). A Tecan D300e digital dispenser was then used to add compounds to the culture using an 8-point 3-fold serial dilution format. The DMSO concentration was normalized to 0.5% for all treatments. Following compound addition, 50 μL of infection medium containing 160 TCID50 HSV-2 G strain was added to the cells and incubated at 37° C. for 5 days. After the incubation, 10 μL/well of WST-8 chromogenic reagent was added and the plates incubated at 37° C. for 3 hours. Following the incubation, cell viability was quantified by measuring the absorbance at 460 nm and 620 nm using a Tecan Infinite M1000 Pro plate reader.
row,SMILES,EC50
1,Cc1nc(N2CCCN(c3ccc(-c4cc(F)cc5c(C)c(C(C)(C)F)sc45)cc3)C2=O)sc1S(N)(=O)=O [Compound 283],100 to 1000 nM
2,Cc1nc(N2CCCN(c3ccc(-c4cncc5ncsc45)cc3)C2=O)sc1S(N)(=O)=O [Compound 269],100 to 1000 nM
3,"Cc1nc(N2CCCN(c3ccc(-c4ccccc4F)cc3)C2=O)sc1S(=O)(=O)C(F)F [Compound 412, 1-(5-((difluoromethyl)sulfonyl)-4-methylthiazol-2-yl)-3-(2′-fluoro-[1,1′-biphenyl]-4-yl)tetrahydropyrimidin-2(1H)-one]",100 to 1000 nM
4,Cc1nc(N2CCCN(c3ccc(-c4cccc5c4OCCC5(F)F)cc3)C2=O)sc1S(N)(=O)=O [Compound 267],100 to 1000 nM
5,Cc1nc(N2CCCN(c3ccc(-c4cccc5c4cnn5S(C)(=O)=O)cc3)C2=O)sc1S(N)(=O)=O [Compound 57],1000 to 5000 nM
6,Cc1nc(N2CCCN(c3ccc(-c4ccccc4/C=C\C#N)cc3)C2=O)sc1S(N)(=O)=O [Compound 21],100 to 1000 nM
7,Cc1nc(N2CCCN(c3ccc(-c4cc(F)cc5nc(C#N)sc45)cc3)C2=O)sc1S(N)(=O)=O [Compound 279],100 to 1000 nM
8,Cc1nc(N2CCCN(c3ccc(-c4cc(C(C)(F)F)cc5c4OCO5)cc3)C2=O)sc1S(N)(=O)=O [Compound 273],100 to 1000 nM
9,Cc1nc(N2CCCN(c3ccc(-c4cccc(N)n4)cc3)C2=O)sc1S(=O)(=O)NC1CC1 [Compound 410],< 100 nM
10,COc1ccc(F)cc1-c1ccc(N2CC3(COC3)CN(c3nc(C)c(S(N)(=O)=O)s3)C2=O)cc1 [Compound 378],< 100 nM
11,"Cc1nc(N2C[C@@H](C(C)(C)F)CN(c3ccc(-c4cc(F)ccc4F)cc3)C2=O)sc1S(N)(=O)=O (single isomer, unassigned) [Compound 351]",< 100 nM
12,"Cc1nc(N2CCCCN(c3ccc(-c4cc(F)ccc4F)cc3)C2=O)sc1[S@@](C)(=N)=O (single isomer, unassigned) [Compound 426]",< 100 nM
13,Cc1nc(N2CCCN(c3ccc(-c4ccccc4C(F)(F)F)cc3)C2=O)sc1S(N)(=O)=O [Compound 196],< 100 nM
14,Cc1nc(N2CCCN(c3ccc(-c4cccc(-c5ccnn5C)c4)cc3)C2=O)sc1S(N)(=O)=O [Compound 32],100 to 1000 nM
15,Cc1nc(N2CCCN(c3ccc(-c4cc(C(F)(F)F)cc5nsnc45)cc3)C2=O)sc1S(N)(=O)=O [Compound 244],< 100 nM

# Second part, the molecule after the results:
row,EC50,SMILES
1,< 100 nM,Cc1nc(N2CC3(COC3)CN(c3ccc(-c4cc(F)cc5nsnc45)cc3)C2=O)sc1S(N)(=O)=O [Compound 340]
2,< 100 nM,Cc1nc(N2CCCN(c3ccc(-c4cc(C#N)cc5nsnc45)cc3)C2=O)sc1S(N)(=O)=O [Compound 304]
3,< 100 nM,COc1ccc(F)cc1-c1ccc(N2CC(C)CN(c3nc(C)c(S(N)(=O)=O)s3)C2=O)cc1 (centres unmarked) [Compound 329]
4,< 100 nM,Cc1nc(N2CCCCN(c3ccc(-c4cccc5ncsc45)cc3)C2=O)sc1S(C)(=N)=O (centres unmarked) [Compound 428]
5,< 100 nM,C#Cc1nc(N2CCCN(c3ccc(-c4cc(F)ccc4F)cc3)C2=O)sc1S(N)(=O)=O [Compound 439]
6,< 100 nM,"CN=[S@@](C)(=O)c1sc(N2CCCN(c3ccc(-c4ccccc4F)cc3)C2=O)nc1C (single isomer, unassigned) [Compound 147]"
7,< 100 nM,Cc1nc(N2CCCN(c3ccc(-c4cc(F)ccc4F)cc3)C2=O)sc1S(=O)(=O)NCC1COC1 [Compound 404]
8,< 100 nM,Cc1nc(N2CCCN(c3ccc(-c4cc(F)ccc4F)cc3)C2=O)sc1S(=O)(=O)NCCCCCCCCCCO [Compound 420]
9,< 100 nM,Cc1nc(N2CCCN(c3ccc(-c4nccc5ccsc45)cc3)C2=O)sc1S(N)(=O)=O [Compound 270]
10,< 100 nM,"Cc1nc(N2CCCCN(c3ccc(-c4cccc5ncsc45)cc3)C2=O)sc1[S@](C)(=N)=O (single isomer, unassigned) [Compound 430]"

# Same assay, conditions: Vero cells, 160 TCID50 HSV-2 G strain, 5 days, cell viability
row,EC50,SMILES
1,< 100 nM,"Cc1nc(N2C[C@@H](C#N)CN(c3ccc(-c4cc(F)ccc4F)cc3)C2=O)sc1S(N)(=O)=O (single isomer, unassigned) [Compound 377]"
